Laboratory results from paper PMC8205226, “HIV-1 Integrase Inhibitors with Modifications That Affect Their Potencies against Drug Resistant Integrase Mutants” (ACS Infectious Diseases, 2021).

Experiments:
Assay type in all cases: cell-based
WT HIV-1 = experiment: single-round infectivity assay, WT HIV-1 IN vector; conditions: Human immunodeficiency virus 1, read-out: EC50 values WT, vector carrying WT HIV-1 IN, single round infection, n = 4; new compounds
Experimental: (§1) Figure 2 Antiviral activities of the new compounds against RAL-resistant mutants. The EC50 values were determined using a vector that carries WT HIV-1 IN and the RAL-resistant mutants in a single round infection assay. […] Error bars represent the standard deviations of independent experiments, n = 4, performed in triplicate. The graph has a maximum value of 550 nM.
(§2) WT and mutant HIV-1 viral vectors were used in single-round infectivity assays to determine the antiviral potencies (EC50 values) of the compounds and the effects of the mutants on the EC50 values as previously described.[30],[54] Single round infectivity measurements were determined as done previously.[38]
(§3) The vector pNLNgoMIVR-ΔENV.LUC has been described previously.[26] To produce the new IN mutants used in this study, the IN open reading frame was removed from pNLNgoMIVR-ΔENV.LUC by digestion with KpnI and SalI, and the resulting fragment was inserted between the KpnI and SalI sites of pBluescript KS+. Using that construct as the wild-type template, we prepared the following HIV-1 IN mutants using the QuikChange II XL site directed mutagenesis kit (Agilent Technologies, Santa Clara, CA) protocol: N117A, N117H, P142A, P142H, P142S, Y143C, Y143H, S230R, R231G, and R231K. The following sense oligonucleotides were used with matching cognate antisense oligonucleotides (not shown) (Integrated DNA Technologies, Coralville, IA) in the mutagenesis: N117A, 5′-[…]-3′; N117H, 5′-[…]-3′; P142A, 5′-[…]-3′; P142H, 5′-[…]-3′; P142S, 5′-[…]-3′; Y143C, 5′- […]-3′; Y143H, 5′-[…]-3′; S230R, 5′- […]-3′; R231G, 5′-[…]-3′; R231K, 5′-[…]-3′.

HIV-1 IN mutant Y143R = experiment: single-round infectivity assay, Y143R IN mutant
Experimental: as §1, §2, §3

HIV-1 IN mutant N155H = experiment: single-round infectivity assay, N155H IN mutant
Experimental: as §1, §2, §3

[1] = test system: HIV-1 IN double mutant G140S/Q148H; experiment: single-round infectivity assay, G140S/Q148H IN double mutant
Experimental: as §1, §2, §3

HIV-1 IN mutant N117A = experiment: single-round infectivity assay, N117A IN mutant
Experimental: (§4) The EC50 values were determined using a vector that carries the IN mutant in a single round infection assay. […] Error bars represent the standard deviations of independent experiments, n = 4, performed in triplicate.
as §2, §3

HIV-1 IN mutant N117H = experiment: single-round infectivity assay, N117H IN mutant
Experimental: as §4, §2, §3

HIV-1 IN mutant G118R = experiment: single-round infectivity assay, G118R IN mutant
Experimental: as §4, §2, §3

HIV-1 IN mutant S119R = experiment: single-round infectivity assay, S119R IN mutant
Experimental: as §4, §2, §3

HIV-1 IN mutant Y143C = experiment: single-round infectivity assay, Y143C IN mutant
Experimental: (§5) Figure 4 Mutations in the β5-α3 loop affect the antiviral potencies of the new compounds. The EC50 values were determined using a vector that carries the IN mutant in a single round infection assay. […] Error bars represent the standard deviations of independent experiments, n = 4, performed in triplicate.
as §2, §3

HIV-1 IN mutant Y143H = experiment: single-round infectivity assay, Y143H IN mutant
Experimental: as §5, §2, §3

HIV-1 IN mutant P142A = experiment: single-round infectivity assay, P142A IN mutant
Experimental: as §5, §2, §3

HIV-1 IN mutant P142H = experiment: single-round infectivity assay, P142H IN mutant
Experimental: as §4
Single round infectivity measurements were determined as done previously.[38]
as §3

HIV-1 IN mutant P142S = experiment: single-round infectivity assay, P142S IN mutant
Experimental: as §5, §2, §3

HIV-1 IN mutant S230R = experiment: single-round infectivity assay, S230R IN mutant
Experimental: (§6) Figure 5 Antiviral potencies of the new compounds against IN with mutations in the […]. The EC50 values were determined using a vector that carries the IN mutant in a single round infection assay. […] Error bars represent the standard deviations of independent experiments, n = 4, performed in triplicate.
as §2, §3

HIV-1 IN mutant R231G = experiment: single-round infectivity assay, R231G IN mutant
Experimental: as §6, §2, §3

HIV-1 IN mutant R231K = experiment: single-round infectivity assay, R231K IN mutant
Experimental: as §6, §2, §3

[2] = fold change in EC50, IN mutant versus WT HIV-1

## O=C(NCc1ccc(F)cc1F)c1c(O)c2c(CO)ccnc2n(O)c1=O [5j, N-(2,4-Difluorobenzyl)-1,4-dihydroxy-5-(hydroxymethyl)-2-oxo-1,2-dihydro-1,8-naphthyridine-3-carboxamide]
WT HIV-1
  EC50: 7.3 ± 0.6 nM
HIV-1 IN mutant Y143R; EC50 compound / EC50 DTG
  ratio of the EC50s (our compound relative to DTG) against Y143R: 0.6
HIV-1 IN mutant Y143R; Human immunodeficiency virus 1, read-out: EC50 values Y143R
  EC50: 2.6 ± 0.4 nM
HIV-1 IN mutant Y143R; [2]
  FC Y143R: 0.4
HIV-1 IN mutant N155H; EC50 compound / EC50 DTG
  ratio of the EC50s (our compound relative to DTG) against N155H: 4.1
HIV-1 IN mutant N155H; Human immunodeficiency virus 1, read-out: EC50 values N155H
  EC50: 14.9 ± 3.6 nM
HIV-1 IN mutant N155H; [2]
  FC N155H: 2.0
[1]; EC50 compound / EC50 DTG
  ratio of the EC50s (our compound relative to DTG) against G140S/Q148H: 2.5
[1]; Human immunodeficiency virus 1, read-out: EC50 values G140S/Q148H
  EC50: 14.7 ± 1.1 nM
[1]; [2]
  FC G140S/Q148H: 2.0
HIV-1 IN mutant N117A; EC50 compound / EC50 DTG
  ratio of the EC50s (our compound relative to DTG) against N117A: 26.8
HIV-1 IN mutant N117A; Human immunodeficiency virus 1, read-out: EC50 values N117A
  EC50: 13.4 ± 1.5 nM
HIV-1 IN mutant N117A; [2]
  FC N117A: 1.8
HIV-1 IN mutant N117H; EC50 compound / EC50 DTG
  ratio of the EC50s (our compound relative to DTG) against N117H: 1.4
HIV-1 IN mutant N117H; Human immunodeficiency virus 1, read-out: EC50 values N117H
  EC50: 3.4 ± 0.4 nM
HIV-1 IN mutant N117H; [2]
  FC N117H: 0.5
HIV-1 IN mutant G118R; EC50 compound / EC50 DTG
  ratio of the EC50s (our compound relative to DTG) against G118R: 2.3
HIV-1 IN mutant G118R; Human immunodeficiency virus 1, read-out: EC50 values G118R
  EC50: 30 ± 5 nM
HIV-1 IN mutant S119R; EC50 compound / EC50 DTG
  ratio of the EC50s (our compound relative to DTG) against S119R: 3.0
HIV-1 IN mutant S119R; Human immunodeficiency virus 1, read-out: EC50 values S119R
  EC50: 7 ± 0.2 nM
HIV-1 IN mutant S119R; [2]
  FC S119R: 1.0
HIV-1 IN mutant Y143C; EC50 compound / EC50 DTG
  ratio of the EC50s (our compound relative to DTG) against Y143C: 1.7
HIV-1 IN mutant Y143C; Human immunodeficiency virus 1, read-out: EC50 values Y143C, single round infection, n = 4
  EC50: 2.4 ± 0.1 nM
HIV-1 IN mutant Y143C; [2]
  FC Y143C: 0.3
HIV-1 IN mutant Y143H; EC50 compound / EC50 DTG
  ratio of the EC50s (our compound relative to DTG) against Y143H: 1.2
HIV-1 IN mutant Y143H; Human immunodeficiency virus 1, read-out: EC50 values Y143H, single round infection, n = 4
  EC50: 2.6 ± 0.2 nM
HIV-1 IN mutant Y143H; [2]
  FC Y143H: 0.4
HIV-1 IN mutant P142A; EC50 compound / EC50 DTG
  ratio of the EC50s (our compound relative to DTG) against P142A: 1.9
HIV-1 IN mutant P142A; Human immunodeficiency virus 1, read-out: EC50 values P142A
  EC50: 4.7 ± 0.1 nM
HIV-1 IN mutant P142H; EC50 compound / EC50 DTG
  ratio of the EC50s (our compound relative to DTG) against P142H: 1.3
HIV-1 IN mutant P142H; Human immunodeficiency virus 1, read-out: EC50 values P142H
  EC50: 3.5 ± 0.1 nM
HIV-1 IN mutant P142S; EC50 compound / EC50 DTG
  ratio of the EC50s (our compound relative to DTG) against P142S: 1.6
HIV-1 IN mutant P142S; Human immunodeficiency virus 1, read-out: EC50 values P142S
  EC50: 3.5 ± 0.5 nM
HIV-1 IN mutant S230R; EC50 compound / EC50 DTG
  ratio of the EC50s (our compound relative to DTG) against S230R: 1.7
HIV-1 IN mutant S230R; Human immunodeficiency virus 1, read-out: EC50 values S230R
  EC50: 7.7 ± 1 nM
HIV-1 IN mutant S230R; [2]
  FC S230R: 1.1
HIV-1 IN mutant R231G; EC50 compound / EC50 DTG
  ratio of the EC50s (our compound relative to DTG) against R231G: 1.8
HIV-1 IN mutant R231G; Human immunodeficiency virus 1, read-out: EC50 values R231G
  EC50: 2.5 ± 0.6 nM
HIV-1 IN mutant R231G; [2]
  FC R231G: 0.3
HIV-1 IN mutant R231K; EC50 compound / EC50 DTG
  ratio of the EC50s (our compound relative to DTG) against R231K: 1.4
HIV-1 IN mutant R231K; Human immunodeficiency virus 1, read-out: EC50 values R231K, single round infection, n = 4
  EC50: 5.9 ± 0.2 nM
HIV-1 IN mutant R231K; [2]
  FC R231K: 0.8
